# Assay results: patent US5540917A, “Biomass lipase inhibitor useful for treating adiposity” (Hoffmann-La Roche Inc., priority 1992, dated 1996)
# Legend:
# [1] = tested on: fat absorption; test: Dog test: fat absorption (C-14 triolein), LST in the fermentation cake alone or with cellulose; format: in vivo, dogs; details: even when present in a fermentation cake; confirms mouse test
# Description: Female dogs aged 7 to 15 years and having a body weight between 13 and 22 kg are divided into 2 groups each of 6 animals. The animals are fed with a standard dog food. The animals have free access to drinking water.
# The animals are given a test meal on the day of the test. This test meal contains as feed components 7.5% protein, 19% is carbohydrate, 6% fat, 1.6% minerals, 45% water and 20% ballast materials. The fat of the feed consists of 58% olive oil treated with C-14 triolein. The remaining fat is composed predominantly of saturated fatty acids.
# The absorption of the fat administered orally with the test diet was measured on the basis of the recovered radioactivity in the feces of the dogs. The difference between the orally-administered amount of C-14 labelled triolein and the radioactivity found in the feces within three days after intake of the test meal is considered to be absorbed fat. The absorbed amount is given as a percentage of the administered amount. The lower the absorption is, that is, the lower the percentage is, then the greater is the activity of the lipase inhibitor.
# Microbiologically-produced lipstatin (LST) is used as the lipase inhibitor in both parts of the test. […] The content of LST in the cake was determined at 4 g of LST per kg of fresh fermentation cake using conventional analytical methods. […]
# [2] = tested on: fat absorption; test: Mouse test: fat absorption (C-14 triolein), pure LST versus LST in a fermentation cake; format: in vivo; details: oral, 3 mice
# Method: Microbiologically-produced lipstatin (LST) is used as the lipase inhibitor in both parts of the test. LST is equivalent as a chemically pure substance with LST as a component of a fermentation cake produced according to Example 4 of EP 129 748. The content of LST in the cake was determined at 4 g of LST per kg of fresh fermentation cake using conventional analytical methods.
# a) Mouse test Comparison of chemically pure LST with LST as a component of a fermentation cake.
# Pure LST or the dried fermentation cake was suspended in 5% gum arabic/5% lactose preparation, conventional in pharmacological tests, and administered orally to animals, which had been pre-fasted for 24 hours, in an amount of 10 ml/kg per mouse immediately after a liquid test meal. The test meal contained 2.5% starch, 24% glucose, 12% lactose and 7.6% olive oil labelled with C-14 triolein. Thereafter, the mice received a conventional standard feed.
# The calculation of the absorbed fat in the feed was carried out as described in Example 1.
# The results of the test are reported in Table 3 in which the LST dose is calculated per mg/kg body weight. The values are average values calculated from measurements on, in each case, 3 mice per test.
# [3] = tested on: fat absorption; test: Fat absorption from test meal in dogs (C-14 triolein recovery in feces), THL with or without cellulose; format: in vivo; details: for Triolein absorption in % of the applied dose: 26 g fat
# Description: Female dogs aged 7 to 15 years and having a body weight between 13 and 22 kg are divided into 2 groups each of 6 animals. The animals are fed with a standard dog food. The animals have free access to drinking water. The animals are given a test meal on the day of the test. This test meal contains as feed components 7.5% protein, 19% is carbohydrate, 6% fat, 1.6% minerals, 45% water and 20% ballast materials. The fat of the feed consists of 58% olive oil treated with C-14 triolein. The remaining fat is composed predominantly of saturated fatty acids. The absorption of the fat administered orally with the test diet was measured on the basis of the recovered radioactivity in the feces of the dogs. The difference between the orally-administered amount of C-14 labelled triolein and the radioactivity found in the feces within three days after intake of the test meal is considered to be absorbed fat. The absorbed amount is given as a percentage of the administered amount. The lower the absorption is, that is, the lower the percentage is, then the greater is the activity of the lipase inhibitor.
# [4] = Consistency of feces of the dogs; format: in vivo
# [5] = Blood plasma total glycerol in dogs after a test meal with THL and cellulose; format: in vivo; details: 50 mg THL + 80 g cellulose
# Description: Female dogs aged 7 to 15 years and having a body weight between 13 and 22 kg are divided into 2 groups each of 6 animals. The animals are fed with a standard dog food. The animals have free access to drinking water. The animals are given a test meal on the day of the test. This test meal contains as feed components 7.5% protein, 19% is carbohydrate, 6% fat, 1.6% minerals, 45% water and 20% ballast materials. The fat of the feed consists of 58% olive oil treated with C-14 triolein. The remaining fat is composed predominantly of saturated fatty acids. The blood plasma concentrations with respect to total glycerol of dogs which received test diet of 50 mg THL +80 g cellulose have been compared in Table 2 with those of a control without THL, but with cellulose.
# [6] = tested on: fat absorption; test: Fat absorption (C-14 triolein) in mice on fat diet, single and repeated administration of LOC; format: in vivo, Albino mice; details: LOC 50 mg/kg body wt.
# Description: Determination of the activity of a lipase inhibitor using the lipstatin derivative LOC defined above, by way of example, on the fat s absorption from the feed in the case of single and repeated administration to mice was undertaken.
# 3 Albino mice weighing 25 g were used per dose in the test.
# The mice received over several days a so-called fat diet in which the fat content was adjusted such that the mice received 23.4 g of fat per kg body wt. per day. The mice were fed with this feed for 8 days. On days 3 to 6 of the test C-14, labelled triolein and LOC in a dose of 50 mg/kg body weight were admixed with this feed. The feces of the mice was collected at intervals of 24 hours from days 4 to 8 of the test and evaluated according to the guidelines given in Example 1.
# The control animals each received the test diet without the LOC active substance.
# The absorption of the orally administered fat was measured as in Examples 1, and 2.
compound,measurement,setting,value
"CCCCCCCCCCC[C@@H](C[C@@H]1OC(=O)[C@H]1CCCCCC)OC(=O)[C@H](CC(C)C)NC=O [pure LST, lipstatin]",lipase inhibitor activity,[1],very active lipase inhibitor
same,Triolein absorption in % per dose administered,[2]; LST dose 5.0 mg/kg,69%
same,Triolein absorption in % per dose administered,[2]; LST dose 15 mg/kg,52%
same,Triolein absorption in % per dose administered,[2]; LST dose 50.0 mg/kg,41%
"CCCCCCCCCCC[C@@H](C[C@@H]1OC(=O)[C@H]1CCCCCC)OC(=O)[C@H](CC(C)C)NC=O [THL, tetrahydrolipstatin]",attenuated fat absorption,[3]; 50 mg THL + 80 g cellulose,28%
same,Triolein absorption in % of the applied dose,"[3]; THL 20 mg/test meal (1.5 mg/kg body wt.) + 80 g cellulose, 420 g test meal",48%
same,Triolein absorption in % of the applied dose,"[3]; THL 20 mg/test meal (1.5 mg/kg body wt.), no cellulose, 340 g test meal",70%
same,Triolein absorption in % of the applied dose,"[3]; THL 50 mg/test meal (4 mg/kg body wt.) + 80 g cellulose, 420 g test meal",28%
same,Triolein absorption in % of the applied dose,"[3]; THL 50 mg/test meal (4 mg/kg body wt.), no cellulose, 340 g test meal",63%
same,activity of the lipase inhibitor when cellulose is added,[3]; THL + cellulose versus THL alone,considerably increased
same,inhibition of the absorption of the administered radioactively labelled fat in the feed,[3]; THL after addition of cellulose (about),52-70%
same,reduction of the absorption of fat contained in the feed,"[3]; THL as sole additive to the test meal, depending on the dose (20 or 50 mg/meal)",30-37%
same,consistency of the feces,[4]; THL in combination with cellulose,solid and formed
same,consistency of the feces,[4]; THL without cellulose,rather pulp-like
same,Total plasma glycerol,[5]; 3 hrs. after administration,0.5 ± 0.02 mmol/l ± SEM
same,Total plasma glycerol,[5]; 7 hrs. after administration,0.9 ± 0.13 mmol/l ± SEM
same,Total plasma glycerol,[5]; before administration (starting value),0.7 ± 0.07 mmol/l ± SEM
same,plasma glycerol increase,[5]; 3 hours after test meal,no increase
same,increase in the absorption,[5]; 7 hours postprandial,slight increase
"CCCCCCCCCCCCCCCCC[C@@H](C[C@@H]1OC(=O)[C@H]1CC)OC(=O)[C@H](CC(C)C)NC=O [LOC, N-formyl-L-leucine (S)-1-[[(2S,3S)-3-ethyl-4-oxo-2-oxetanyl]methyl]octadecyl ester]",Triolein absorption in % of the amount given orally (±SDM),[6]; 1st day,26 ± 4%
same,Triolein absorption in % of the amount given orally (±SDM),[6]; 4th day,26 ± 3%
